Experimental data: US20240245743A1, “USE OF CINNAMOMUM ZEYLANICUM ESSENTIAL OIL (EO) AS HUMAN MELANOMA CELLS DEATH INDUCER AND AS POSSIBLE ADJUVANT IN PHARMACOLOGICAL THERAPIES” (CONSIGLIO NAZIONALE DELLE RICERCHE, priority 2021, published 2024)

Experiments:
M14 cells [1] = experiment: Intracellular ROS analysis by FACS (H2DCF-DA); format: cell-based, human; conditions: EO 10 μg/ml for 24 hours; H2O2 5 mM
Procedure: The generation of ROS species (reactive oxygen species) was analysed by FACS, using the probe sensitive to the oxidant 2 ‘, 7’-dichlorodihydrofluorescein (H2DCF-DA). The C. zeylanicum EO was administered at a dose of 10 μg/ml for 24 hours. […] H2O2 at a concentration of 5 mM was used as a control for the generation of ROS.

[2] = rats; cited from earlier work
M14 cells [3] = experiment: Colony formation assay; format: cell-based, human
Procedure: Ten days after seeding, a solution of 2% methylene blue in 95% ethanol was added to the obtained monolayer and incubated for at least 30 minutes. The plates were then washed with ddH2O and the colonies (at least 50 cells) were counted. The results were expressed as a percentage of colonies formed with respect to the number of cells seeded. Cell survival rate was calculated as % compared to control cells.

melanoma = conditions: phase III study; cited from earlier work
[4] = test system: advanced melanoma, untreated brain metastases, and other solid tumours; conditions: phase I study; cited from earlier work
[5] = features known in the art; cited from earlier work

With `OO` [H2O2, hydrogen peroxide] the “oxidative stress (intracellular ROS) in M14 cells compared with PBMCs” value (M14 cells [1]) was “greater oxidative stress”.

For `C=CCc1ccc2c(c1)OCO2` [Safrole], the carcinogenicity [2] is given as “weak carcinogenicity”.

In the case of `CC(=O)O[C@H]1C(=O)[C@@]2(C)[C@H]([C@H](OC(=O)c3ccccc3)[C@]3(O)C[C@H](OC(=O)[C@H](O)[C@@H](NC(=O)c4ccccc4)c4ccccc4)C(C)=C1C3(C)C)[C@]1(OC(C)=O)CO[C@@H]1C[C@@H]2O` [Taxol, Paclitaxel], the “induction of cell death in M14 cells” value (M14 cells [3]; 24 hours treatment, EO 10 μg/ml) is reported as “less than 10%”.

In the case of `O=CC=Cc1ccccc1` [cinnamaldehyde], the “cell survival (colonies vs untreated control)” value (M14 cells [3]; M14 cells, 24 hours treatment) is reported as 64.3%.

In the case of `CC(C)(C)c1nc(-c2cccc(NS(=O)(=O)c3c(F)cccc3F)c2F)c(-c2ccnc(N)n2)s1` [dabrafenib], the “ORR (objective response rate)” value (melanoma) is given as 53%, the “median PFS (progression free survival)” value (melanoma) is given as 5.1 months and the ORR [4] is given as 47%.

For `CC/C(=C(\c1ccccc1)c1ccc(OCCN(C)C)cc1)c1ccccc1` [TAM, Tamoxifen], the “survival of M14 cells compared to control” value (M14 cells [3]; EO 10 μg/ml, TAM 0, 1 μM, 24 hours) was “no significant differences in survival compared to control”.

For `O=c1ccc2ccccc2o1` [Coumarin], the “toxicity (liver, kidney) / general safety” value [5] is listed as “can cause liver and kidney damage”.
